From patent US10695337B2, “Piperidin-4-yl azetidine derivatives as JAK1 inhibitors” (Incyte Corporation, priority 2010, dated 2020)

Key:
Format in all cases: biochemical
[1] = target: human JAK1 (a.a. 837-1142) (Homo sapiens, UniProt P23458); test: In vitro JAK kinase assay (HTRF, phosphorylation of a biotinylated peptide), JAK1; conditions: measured at 1 mM ATP
In short: (§1)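 N-terminal His-tagged catalytic domains, baculovirus-expressed in insect cells, phosphorylated a biotinylated peptide for 1 hr at room temperature. EDTA stop was followed by SA-APC and Eu-Py20 antibody for 40 minutes, with phosphopeptide read by HTRF.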

[2] = target: human JAK1 (a.a. 837-1142); test: as above; conditions: measured at 1 mM ATP; JAK2 IC50 / JAK1 IC50
In short: as §1

[3] = target: human Jak2 (a.a. 828-1132) (Homo sapiens (Human), UniProt O60674); test: In vitro JAK kinase assay (HTRF, phosphorylation of a biotinylated peptide), JAK2; conditions: measured at 1 mM ATP
Protocol: Compounds herein were tested for inhibitory activity of JAK targets according to the following in vitro assay described in Park et al., Analytical Biochemistry 1999, 269, 94-104. The catalytic domains of human JAK1 (a.a. 837-1142), Jak2 (a.a. 828-1132) and Jak3 (a.a. 781-1124) with an N-terminal His tag were expressed using baculovirus in insect cells and purified. The catalytic activity of JAK1, JAK2 or JAK3 was assayed by measuring the phosphorylation of a biotinylated peptide. The phosphorylated peptide was detected by homogenous time resolved fluorescence (HTRF). […] Reactions were carried out at room temperature for 1 hr and then stopped with 20 μL 45 mM EDTA, 300 nM SA-APC, 6 nM Eu-Py20 in assay buffer (Perkin Elmer, Boston, Mass.). Binding to the Europium labeled antibody took place for 40 minutes and HTRF signal was measured on a Fusion plate reader (Perkin Elmer, Boston, Mass.).

Chain of human Jak2 (a.a. 828-1132) (O60674 828-1132): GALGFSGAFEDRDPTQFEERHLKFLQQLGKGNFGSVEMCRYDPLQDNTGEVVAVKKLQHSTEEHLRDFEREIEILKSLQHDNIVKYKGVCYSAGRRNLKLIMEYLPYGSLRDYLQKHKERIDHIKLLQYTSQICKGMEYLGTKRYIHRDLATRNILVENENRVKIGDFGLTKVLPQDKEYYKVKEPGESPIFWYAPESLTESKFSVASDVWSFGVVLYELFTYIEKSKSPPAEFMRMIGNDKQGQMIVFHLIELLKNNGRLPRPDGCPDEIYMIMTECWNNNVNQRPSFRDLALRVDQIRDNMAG

IC50 [1]: 20 to 30 nM
IC50 Ratio JAK2/JAK1 [2]: 6.4
IC50 [3]: > 100 nM
SMILES: CC1CC(N2CC(CC#N)(n3cc(-c4ncnc5[nH]ccc45)cn3)C2)CCN1Cc1ccc(N(C)C)c(C#N)c1F (single isomer, unassigned) [Example 243, 3-[(4-{3-(cyanomethyl)-3-[4-(7H-pyrrolo[2,3-d]pyrimidin-4-yl)-1H-pyrazol-1-yl]azetidin-1-yl}-2-methylpiperidin-1-yl)methyl]-6-(dimethylamino)-2-fluorobenzonitrile]
